In US20120251551A1, “Substituted (Heteroarylmethyl)thiohydantoins” (BAYER PHARMA AKTIENGESELLSCHAFT, priority 2009, published 2012):
Positions count from the first letter of the chain named.

What was measured:
[1] = molecular target: T1, human androgen receptor W741L mutant (Homo sapiens, UniProt P10275, W742L); assay: Cell-based transactivation assay for human androgen receptor mutant W741L
T1 construct: expressed in transfected cells; host or cells: PC-3 cells, transient transfection with a pSG5-derived plasmid
T1 sequence (P10275 1-920 W742L): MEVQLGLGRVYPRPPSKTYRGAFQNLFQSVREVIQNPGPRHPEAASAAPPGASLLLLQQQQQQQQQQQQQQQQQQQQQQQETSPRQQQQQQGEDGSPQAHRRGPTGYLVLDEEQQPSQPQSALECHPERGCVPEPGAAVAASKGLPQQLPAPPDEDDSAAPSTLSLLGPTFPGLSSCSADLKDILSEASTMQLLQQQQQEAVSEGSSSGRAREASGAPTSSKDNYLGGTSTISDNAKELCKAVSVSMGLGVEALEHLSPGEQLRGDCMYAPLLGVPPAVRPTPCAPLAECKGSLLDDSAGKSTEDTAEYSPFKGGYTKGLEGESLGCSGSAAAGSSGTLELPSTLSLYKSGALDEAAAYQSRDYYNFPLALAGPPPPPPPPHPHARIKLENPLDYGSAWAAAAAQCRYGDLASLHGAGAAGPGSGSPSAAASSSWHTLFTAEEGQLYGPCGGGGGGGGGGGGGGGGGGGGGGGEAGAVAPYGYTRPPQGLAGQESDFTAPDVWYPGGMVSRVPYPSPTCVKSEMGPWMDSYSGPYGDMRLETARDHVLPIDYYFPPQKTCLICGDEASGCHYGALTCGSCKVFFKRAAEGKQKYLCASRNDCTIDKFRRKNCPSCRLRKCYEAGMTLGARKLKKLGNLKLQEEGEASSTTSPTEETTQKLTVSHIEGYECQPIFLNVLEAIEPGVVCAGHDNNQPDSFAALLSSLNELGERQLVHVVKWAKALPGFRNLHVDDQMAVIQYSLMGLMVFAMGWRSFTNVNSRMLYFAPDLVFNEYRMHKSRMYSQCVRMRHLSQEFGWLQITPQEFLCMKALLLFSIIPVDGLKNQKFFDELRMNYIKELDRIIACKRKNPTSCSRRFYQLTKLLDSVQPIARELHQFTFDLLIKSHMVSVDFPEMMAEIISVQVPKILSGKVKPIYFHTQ
Method: (§1) Cell-Based Transactivation Assay for Human Androgen Receptor Mutant W741L or W741C
(§2) PC-3 cells (Kaighn et al., Invest. Urol. 17:16-23, 1979) were grown in 5% charcoal-stripped medium and seeded at a concentration of 10000 cells per well in a 96-well plate. They were transiently transfected with a pSG5-derived plasmid (#216201 from Stratagene, La Jolla, Calif., USA) coding for the human androgen receptor W741L or W741C mutant Mara et al., Cancer Research, 63: 149-153, 2003) and an MMTV-Luciferase reporter plasmid based on pGL4.14 14 (#E6691, Promega Corporation, Madison, Wis., USA). The compound to be tested was added at a concentration range varying from 1×10^−9 to 1×10 M together with 1×10^−10 R1881. After 24 h incubation at 37° C. in a 5% CO2 atmosphere, 100 μl of Steady Glo Lysis and Detection reagent (Steady Glo Luciferase assay system E2550 from Promega Corporation. Madison, Wis., USA) were added. Antagonistic activity was determined by measuring Luciferase activity in a Victor 3 Luminometer (PerkinElmer, Waltham, Mass., USA) using the Steady Glo Luciferase Assay (E2550, Promega). IC50 values were calculated for anti-androgenic activity.

[2] = Determination of metabolic stability in vitro (calculation of hepatic in vivo blood clearance); type: in vitro ADME; conditions: pH 7.4, human liver microsomes, calculated from half-life, read-out: calculated hepatic in vivo blood clearance (CL) (converted)
Method: Determination of Metabolic Stability In Vitro (Including Calculation of Hepatic In Vivo Blood Clearance (CL) and of Maximal Oral Bioavailability (Fmax))
The metabolic stability of test compounds in vitro was determined by incubating them at 1 μM with a suspension of human liver microsomes in 100 mM phosphate buffer, pH7.4 (NaH2PO4×H2O+Na2HPO4×2H2O) at a protein concentration of 0.5 mg/ml and at 37° C. The reaction was activated by adding a co-factor mix containing 1.2 mg NADP, 3 IU glucose-6-phosphate dehydrogenase, 14.6 mg glucose-6-phosphate and 4.9 mg MgCl2 in phosphate buffer, pH 7.4. Organic solvent in the incubations was limited to <0.2% dimethylsulfoxide (DMSO) and <1% methanol. During incubation, the microsomal suspensions were continuously shaken and aliquots were taken at 2, 8, 16, 30, 45 and 60 min, to which equal volumes of cold methanol were immediately added. Samples were freezed at −20° C. over night, subsequently centrifuged for 15 minutes at 3000 rpm and the supernatant was analyzed with an Agilent 1200 HPLC-system with LCMS/MS detection.
The half-life of a test compound was determined from the concentration-time plot. From the half-life the intrinsic clearances were calculated. Together with the additional parameters liver blood flow, specific liver weight and microsomal protein content the hepatic in vivo blood clearance (CL) and the maximal oral bioavailability (Fmax) were calculated for the different species. The following parameter values were used: Liver blood flow—1.3 l/h/kg human; specific liver weight—21 g/kg human; microsomal protein content—40 mg/g.
With the described assay only phase-I metabolism of microsomes is reflected, e.g. typically oxidoreductive reactions by cytochrome P450 enzymes and flavin mono-oxygenases (FMO) and hydrolytic reactions by esterases (esters and amides).

[3] = molecular target: T2, wild-type human androgen receptor (Homo sapiens, UniProt P10275); assay: Cell-based transactivation assay for wild-type human androgen receptor (PC-3 cells, MMTV-luciferase reporter)
T2 construct: expressed in transfected cells
T2 sequence (P10275 1-920): T1 sequence (P10275 1-920 W742L) with L742W
Method: Cell-Based Transactivation Assay for Wild-Type Human Androgen Receptor
PC-3 cells (Kaighn et al., Invest. Urol. 17:16-23, 1979) stably transfected with the human androgen receptor (Swiss-Prot Acc. No. P10275, Entry Version 159, Sequence Version 2) and a reporter plasmid based on pGL4.14 (#E6691, Promega Corporation, Madison, Wis., USA) containing the MMTV promoter (Cato et al., EMBO J. 6:363-8, 1987) were used. They were grown in 5% charcoal-stripped medium and seeded at a concentration of 1000 cells per well in a 384-well plate. For determination of antagonistic activity, the plate additionally contained the compound to be tested at a concentration range varying from 5.12×10^−12 to 1×10^−5 M. The assay was performed in presence of 1×10^−10 R1881 (also known as methyltrienolone). After overnight incubation at 37° C. in a 5% CO2 atmosphere, 15 μl of Steady Glo Lysis and Detection reagent (Steady Glo Luciferase assay system E2550 from Promega Corporation. Madison, Wis., USA) were added. IC50 was calculated for anti-androgenic activity as well as percentage inhibition in presence of 2 μM compound in comparison to non-stimulated luciferase signal. Agonistic activity was determined using the same concentration range of compound in the absence of R1881 by measuring Luciferase activity as above. EC50 was calculated for androgenic activity. Assay/read plates were used (Polystyrol; 384, NV-white cell culture plates; Perkin Elmer).

[4] = test system: LNCaP cells; assay: Proliferation assay with LNCaP cells; type: cell-based; conditions: Homo sapiens, 168 h, R1881 (1×10^−10) stimulated growth, day 7, read-out: inhibition IC50 (LNCaP)
Method: Proliferation Assay with LNCaP Cells
LNCaP cells (Horoszewicz et al., in “Models for Prostate Cancer” (ed. G. P. Murphy), Alan R. Liss, New York 1981, p. 115-132; Horoszewicz et al., Cancer Res. 43:1809-1818, 1983) were seeded at 2000 cells/well in 96-well plates in RPMI (F1235, Biochrom AG, Berlin, Germany) without phenol red supplemented with 5% charcoal-stripped serum. After 3 days, the cells were treated with R1881) (1×10^−10) and compound (day 0). Cell number was determined by Alamar Blue (DAL1100, Invitrogen, Life Technologies, Lohne, Germany) staining (2.5 h) at day 0 and day 7. Fluorescence was determined in Victor3 (Excitation 530 nm; emission 590 nm). Stimulated growth was defined as the signal measured at day 7 for cells treated only with R1881. Basal level was defined as the signal measured at day 7 for cells grown without R1881.

[5] = molecular target: T3, human androgen receptor W741C mutant (Homo sapiens, UniProt P10275, W742C); assay: Cell-based transactivation assay for human androgen receptor mutant W741C
T3 construct: expressed in transfected cells; host or cells: PC-3 cells, transient transfection with a pSG5-derived plasmid
T3 sequence (P10275 1-920 W742C): T1 sequence (P10275 1-920 W742L) with L742C
Method: as §1, §2

[6] = test system: VCaP cells; assay: Proliferation assay with VCaP cells; type: cell-based; conditions: Homo sapiens, 168 h, R1881 (1×10^−10) stimulated growth, day 7, read-out: Antiproliferative activity VCaP IC50
Method: Proliferation Assay with VCaP Cells
VCaP cells ((Korenchuk et al., In Vivo 15: 163-168, 2001)) were seeded at 16 000 cells/well in 96-well plates in DMEM (F0445, Biochrom AG, Berlin, Germany) with phenol red supplemented with 10% charcoal-stripped serum. After 1 day, the cells were treated with R1881 (1×10^−10) and compound (day 0). Cell number was determined by Alamar Blue (DAL1100, Invitrogen, Life Technologies, Lohne, Germany) staining (2.5 h) at day 0 and day 7. Fluorescence was determined in Victor3 (Excitation 530 nm; emission 590 nm). Stimulated growth was defined as the signal measured at day 7 for cells treated only with R1881. Basal level was defined as the signal measured at day 7 for cells grown without R1881.

| Structure (SMILES) | IC50 [1] | CLhep predicted at 1 µM [2] | EC50 [3] | IC50 [4] | IC50 [5] | IC50 [6] |
| --- | --- | --- | --- | --- | --- | --- |
| CC1(C)C(=O)N(c2ccc(C#N)c(C(F)(F)F)c2)C(=S)N1Cc1cnc(-n2ccnc2)nc1 [Example 17, 4-(3-{[2-(1H-Imidazol-1-yl)pyrimidin-5-yl]methyl}-4,4-dimethyl-5-oxo-2-thioxoimidazolidin-1-yl)-2-(trifluoromethyl)benzonitrile] | 20.6 nM | 1.5 mL/min/kg | > 10000 nM |  |  |  |
| Cn1cc(-c2ccc(CN3C(=S)N(c4ccc(C#N)c(C(F)(F)F)c4)C(=O)C3(C)C)cn2)cn1 [Example 18, 4-(4,4-Dimethyl-3-{[6-(1-methyl-1H-pyrazol-4-yl)pyridin-3-yl]methyl}-5-oxo-2-thioxoimidazolidin-1-yl)-2-(trifluoromethyl)benzonitrile] | 94.6 nM | 1.83 mL/min/kg | 9570 nM | 117 nM |  |  |
| Cc1cn(-c2ccc(CN3C(=S)N(c4ccc(C#N)c(C(F)(F)F)c4)C(=O)C3(C)C)cn2)cn1 [Example 19, 4-(4,4-Dimethyl-3-{[6-(4-methyl-1H-imidazol-1-yl)pyridin-3-yl]methyl}-5-oxo-2-thioxoimidazolidin-1-yl)-2-(trifluoromethyl)benzonitrile] | 201 nM |  | > 10000 nM | 96 nM | 52.9 nM |  |
| Cn1nccc1-c1ccc(CN2C(=S)N(c3ccc(C#N)c(C(F)(F)F)c3)C(=O)C2(C)C)cn1 [Example 20, 4-(4,4-Dimethyl-3-{[6-(1-methyl-1H-pyrazol-5-yl)pyridin-3-yl]methyl}-5-oxo-2-thioxoimidazolidin-1-yl)-2-(trifluoromethyl)benzonitrile] | 233 nM |  | > 10000 nM | 46 nM | 99.9 nM |  |
| Cc1nc(Cl)cn1-c1ccc(CN2C(=S)N(c3ccc(C#N)c(C(F)(F)F)c3)C(=O)C2(C)C)cn1 [Example 21, 4-(3-{[6-(4-Chloro-2-methyl-1H-imidazol-1-yl)pyridin-3-yl]methyl}-4,4-dimethyl-5-oxo-2-thioxoimidazolidin-1-yl)-2-(trifluoromethyl)benzonitrile] | 296 nM | 6.67 mL/min/kg | > 10000 nM |  |  |  |
| CC1(C)C(=O)N(c2ccc(C#N)c(C(F)(F)F)c2)C(=S)N1Cc1ccc(-n2cnc(C(F)(F)F)c2)nc1 [Example 23, 4-[4,4-Dimethyl-5-oxo-2-thioxo-3-({6-[4-(trifluoromethyl)-1H-imidazol-1-yl]pyridin-3-yl}methyl)imidazolidin-1-yl]-2-(trifluoromethyl)benzonitrile] | 83 nM |  | > 10000 nM | 160 nM | 148 nM | 340 nM |
| CC1(C)C(=O)N(c2ccc(C#N)c(C(F)(F)F)c2)C(=S)N1Cc1ccc(-c2cccs2)nc1 [Example 24, 4-(4,4-Dimethyl-5-oxo-3-{[6-(thien-2-yl)pyridin-3-yl]methyl}-2-thioxoimidazolidin-1-yl)-2-(trifluoromethyl)benzonitrile] | 202 nM | 6.67 mL/min/kg | > 10000 nM |  |  |  |
